In patent US4829078A, “3-phenoxy (or phenylthio)--cyclopentanecarbonylamino acid analogues” (Ono Pharmaceutical Co., Ltd., priority 1985, dated 1989):
pIC50: −log10 of the molar value.

Tests used:
[1] = system: organ slice of cat cerebral cortex; assay: inhibition test on cerebral edema using organ slice of cat cerebral cortex (NaHCO3-stimulated swelling); assay type: cell-based; conditions: Felis catus, 50 min; gray matter slices, 50 minutes at 37° C., pH 7.4, NaHCO3 as stimulating agent of swelling; read-out: Inhibitory activity on cerebral edema (IC50)
Description: The inhibition test on cerebral edema using organ slice of cat cerebral cortex
The test was carried out by the method described in Journal of Medicinal Chemistry, Vol. 25 (No. 5), 567 (1982).
That is, brain was isolated from a cat (weighing 2≈4 kg), slices of about 1 mm in thickness was prepared, the white matter substance was removed, and the gray matter substance (100≈150 mg a test) was used for a sample. The sample was added to the following incubation medium and incubated for 50 minutes at 37° C. After the incubation, the sample was immediately weighed again to determine the swelling weight of the sample. incubation medium (osmotic pressure, 280≈290 mOsm/l)
1. Hepes Buffer (pH 7.4) . . . 2.365 ml
adjusted to pH 7.4 by NaOH
2. test compounds [dissolved in the presence of tris(hydroxymethyl)aminomethane] or water . . . 0.01 ml
3. 0.2M NaHCO3 . . . 0.125 ml (dissolved by Hepes Buffer, giving the final concentration of 10 mM in medium) […]
(C) A percentage of swelling when a slice sample was added to incubation medium comprising Hepes Buffer, the test compounds in various concentrations and NaHCO3. Above-mentioned (A), (B) and (C) were determined. Inhibition percentage of the test compounds was calculated by the following equation: [formula] IC50 value was determined by dose-response curve as a concentration in which inhibition percentage was 50.

[2] = acute toxicity test in mice by intravenous administration; conditions: mouse, in vivo
Description: For example, in the acute toxicity test in mice by intravenous administration, LD50 value of compounds of example 1 and 1-(c) is the dose of between 200 and 400 mg/kg.

Work on `C[C@H](NC(=O)[C@H]1CC[C@H](Oc2ccc(C(=O)c3ccccc3)c(Cl)c2Cl)C1)C(=O)O` [1-(c), N-{(1S,3S)-3-(2,3-dichloro-4-benzoylphenoxy)cyclopentanecarbonyl}alanine] yielded a pIC50 [1] of 6.30 and an LD50 [2] of 200 to 400 mg/kg.
`O=C(O)CC[C@H](NC(=O)[C@H]1CC[C@H](Oc2ccc(C(=O)c3ccccc3)c(Cl)c2Cl)C1)C(=O)O` [Example 1, N-{(1S,3S)-3-(2,3-dichloro-4-benzoylphenoxy)cyclopentanecarbonyl}glutamic acid] showed a pIC50 [1] of 5.52 and an LD50 [2] of 200 to 400 mg/kg.
